In patent publication US8835622B2, “Expression cassettes for seed-specific expression in plants” (Bayer BioScience N.V., priority 2008, dated 2014):
“Also recorded” adds a separate entry of the source. Read-outs that look alike come from different tables or passages of the source.

Test system: CYP704A2
Experiment: Enzyme activity and substrate specificity of recombinant CYP704A2 (microsomes from yeast, radiolabeled substrates, TLC and GC/MS of metabolites)
Type: biochemical, Arabidopsis thaliana
Details: for substrate of CYP704A2 / relative rate of metabolism (in words): 100 μM 14C radiolabelled substrate, with NADPH, TLC; for substrate of CYP704A2 / relative rate of metabolism (in words) / % of metabolisation / Product (nmole/min/nmole P450): 20 min at 27° C.; for % of metabolisation / Product (nmole/min/nmole P450): microsomes from yeast expressing CYP704A2, 100 μM radiolabeled substrate, 78 pmoles of CYP704A2, TLC
Description: Heterologous expression of CYP704A2 in Yeast—For functional expression of the full length CYP704A2 clone, we used a yeast expression system specifically developed for the expression of P450 enzymes and consisting of plasmid pYeDP60 and Saccharomyces cerevisiae WAT11 strain (Pompon D. et al (1996) Methods Enzymol 272, 51-64). Yeast cultures were grown and CYP704A2 expression was induced as described in Pompon et al. (1996) see above from one isolated transformed colony. After growth, cells were harvested by centrifugation and manually broken with glass beads (0.45 mm diameter) in 50 mM Tris-HCl buffer (pH 7.5) containing 1 mM EDTA and 600 mM sorbitol. The homogenate was centrifuged for 10 min at 10,000 g. The resulting supernatant was centrifuged for 1 h at 100,000 g. The pellet consisting of microsomal membranes was resuspended in 50 mM Tris-HCl (pH 7.4), 1 mM EDTA and 30% (v/v) glycerol with a Potter-Elvehjem homogenizer and stored at −30° C. The volume of resuspension buffer is proportional to the weight of yeast pellet: microsomes extracted from 6 g of yeast are resuspended in 3 ml of buffer. All procedures for microsomal preparation were carried out at 0-4° C. The cytochrome P450 content was measured by the method of Omura and Sato (1964) J Biol Chem 239, 2370-2378.
Enzyme activities—radiolabeled substrates were dissolved in ethanol that was evaporated before the addition of microsomes into the glass tube. Resolubilization of the substrates was confirmed by measuring the radioactivity of the incubation media. Enzymatic activities of CYP704A2 from transformed yeast or Arabidopsis microsomes were determined by following the formation rate of metabolites. The standard assay (0.1 ml) contained 20 mM sodium phosphate (pH 7.4), 1 mM NADPH, and radiolabeled substrate (100 μM). The reaction was initiated by the addition of NADPH and was stopped by the addition of 20 μl acetonitrile (containing 0.2% acetic acid). The reaction products were resolved by TLC or HPLC as described below.
Thin layer chromatographic (TLC) methods—Incubation media were directly spotted on TLC plates. For separation of metabolites from residual substrate, TLC were developed with a mixture of diethyl ether/light petroleum (boiling point, 40-60° C.)/formic acid (50:50:1, v/v/v). The plates were scanned with a radioactivity detector (Raytest Rita Star). The area corresponding to the metabolites were scraped into counting vials and quantified by liquid scintillation, or they were eluted from the silica with 10 ml of diethyl ether, which was removed by evaporation. They were then subjected to GC/MS analysis.
GC/MS analysis—GC-MS analysis were carried out on a gas chromatograph (Agilent 6890 Series) equipped with a 30-m capillary column with an internal diameter of 0.25 mm and a film thickness of 0.25 μm (HP-5MS). The gas chromatograph was combined with a quadrupole mass selective detector (Agilent 5973N). Mass spectra were recorded at 70 eV and analysed as in Eglinton et al. (1968) Org. Mass. Spectrom 1, 593-611.
The enzyme activity and substrate specificity of CYP704A2 was subsequently evaluated. Thereto 20 μl of microsomal membranes overexpressing CYP704A2 (i.e. […]) were incubated 20 min at 27° C. with 100 μM of different ^14C radiolabelled fatty acids, alkanols or alkanes (purchased with American Radiolabeled Chemicals) together with 0.1 mM of NADPH, 0.4 Units of glucose-6-phosphate dehydrogenase, 3 mM glucose-6-phosphate in buffer NaPi 20 mM, pH 7.4 in a final reaction volume of 100 μl. The reaction was quenched by the addition of 20 μl of 20% of acetonitrile in water, and the incubation mix was spotted on silicagel 60F254 plates (Merck) for analysis. Plates were developed with a mix of ether/petroleum ether/formic acid 50/50/1 until the migration front reached the top of the plate. Dried plates were then scanned with a Raytest radioisotope thin-layer analyzer and radioactivity in the spots of interest was quantified in order to evaluate the substrate conversion. […]

Row | SMILES | Product (nmole/min/nmole P450) | substrate of CYP704A2 / relative rate of metabolism (in words) | also measured
1 | CCCCCC/C=C\CCCCCCCC(=O)O [palmitoleic acid] | – | not substrates | –
2 | CCCCCCCCCCCCCCCC [C16 alkane, hexadecane] | 22.4 nmole/min/nmole P450 | – | products formed on incubation with CYP704A2 (TLC, GC/MS) (incubation with CYP704A2, products purified on TLC and identified by GC/MS): formation of three more polar compounds; % of metabolisation: 7.1%
3 | CCCCCCCCCCCCCCCCCC(=O)O [stearic acid] | – | not substrates; also recorded: not metabolized | –
4 | CCCCCCCCCCCCCC(=O)O [myristic acid] | – | not substrates | –
5 | CCCCCCCCCCCCCCCC(=O)O [C16:0, palmitic acid] | 18.3 nmole/min/nmole P450 | preferentially metabolized | substrate of CYP704A2 / relative rate of metabolism (in words) (listed as palmitic acid): best substrate; rate of palmitic acid metabolism (concentration of palmitic acid of 100 μM): 18.3 nmol/min/nmole of P450; % of metabolisation: 14.3%

Second part, led by results:

Row | Product (nmole/min/nmole P450) | SMILES | substrate of CYP704A2 / relative rate of metabolism (in words) | also measured
6 | 12.6 nmole/min/nmole P450 | CCCCCCCCCCCCO [C12-OH:0, dodecanol] | – | products formed on incubation with CYP704A2 (TLC, GC/MS): formation of two more polar compounds
7 | 7.3 nmole/min/nmole P450 | CCCCCCCCCCCC(=O)O [C12:0, lauric acid] | – | –
8 | 6.5 nmole/min/nmole P450 | CCCCCCCCCCCCCCCCO [C16-OH:0] | – | –
